US20110236431A1, “TREATMENT OF ACUTE MYOCARDIAL INFARCTION (AMI) USING ENCAPSULATED CELLS ENCODING AND SECRETING GLP-1 PEPTIDES OR ANALOGS THEREOF” (BIOCOMPATIBLES UK LTD., priority 2008, published 2011)
“Also recorded” adds a separate entry of the source.

What was measured:
DPP-IV = DPP-IV (Homo sapiens, UniProt P27487); test: In vitro plasma stability of GLP-1 peptides secreted from human cells; conditions: cell culture supernatant, human lymphocyte enriched plasma, 37° C., 3 or additionally 6 and 9 hours
Sequence of DPP-IV (P27487 whole entry): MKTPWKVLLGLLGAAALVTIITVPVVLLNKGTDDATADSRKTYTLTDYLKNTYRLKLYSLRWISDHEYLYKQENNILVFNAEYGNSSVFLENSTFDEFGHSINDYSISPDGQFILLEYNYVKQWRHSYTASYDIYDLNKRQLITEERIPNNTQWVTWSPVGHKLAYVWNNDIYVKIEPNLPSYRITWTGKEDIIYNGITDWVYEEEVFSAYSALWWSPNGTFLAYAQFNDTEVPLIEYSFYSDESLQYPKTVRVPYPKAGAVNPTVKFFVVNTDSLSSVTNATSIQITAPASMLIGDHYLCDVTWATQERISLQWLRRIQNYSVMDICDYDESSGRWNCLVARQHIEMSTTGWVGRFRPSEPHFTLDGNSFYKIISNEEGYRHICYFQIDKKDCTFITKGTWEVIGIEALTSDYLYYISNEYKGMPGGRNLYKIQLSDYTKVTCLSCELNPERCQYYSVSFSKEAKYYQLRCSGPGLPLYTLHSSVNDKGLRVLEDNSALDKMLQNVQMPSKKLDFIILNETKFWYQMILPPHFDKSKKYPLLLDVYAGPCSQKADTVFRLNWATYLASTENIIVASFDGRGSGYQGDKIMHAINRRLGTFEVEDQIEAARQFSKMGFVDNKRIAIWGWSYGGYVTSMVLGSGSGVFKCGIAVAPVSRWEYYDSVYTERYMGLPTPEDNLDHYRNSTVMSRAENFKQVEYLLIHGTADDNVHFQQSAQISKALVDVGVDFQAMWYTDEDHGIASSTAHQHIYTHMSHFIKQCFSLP

Rin-5F cells = test: Anti-apoptotic efficacy, cycloheximid-induced apoptosis; format: cell-based, rat; conditions: 24 hours
Description: 40.000 Rin-5F cells were seeded per 96 well and cultivated for 2 days in RPMI supplemented with 1% L-Glutamin and 10% fetal calf serum. […] After 24 hours cell viability is quantified using AlamarBlue.

[1] = test system: patients with AMI and severe systolic dysfunction; conditions: GLP-1 infusion added to standard therapy; cited from earlier work

Q: With “GLP1(7-37)-IP2-GLP1(7-37) [construct #217]” as the substance, how does the “stability to DPP-IV degradation in plasma (active GLP-1 ELISA)” value (DPP-IV) read?
A: more resistant to degradation; also recorded: nearly fully stabilized to DPP-IV degradation

Q: What does the source list for GLP-1(7-37)-IP2-GLP-1(7-37) [CM1]?
A: cell viability (Rin-5F cells; CHX 10 μg/ml and 100 μg/ml, different concentrations of CM1): significant (p<0.01) increase of cell viability; anti-apoptotic effect (cell viability, AlamarBlue) (Rin-5F cells; cycloheximid, serum-free, 1 nM CM1, p<0.01): significant anti-apoptotic effect

Q: With “GLP-1(7-37)-IP2-extended with 11 AA [construct #317]” as the substance, how does the “stability to DPP-IV degradation in plasma (active GLP-1 ELISA)” value (DPP-IV) read?
A: more resistant to degradation

Q: For “Glucagon Like Peptide-1 (HAEGTFTSDVSSYLEGQAAKEFIAWLVKGRG) [GLP-1, naturally occurring incretin, infused in literature studies]”, which “regional and global LV function” value [1] is on record?
A: improved regional and global LV function
